One test deals with Vibrio harveyi. Nature of the test: Antimicrobial activity against Vibrio harveyi assessed as bacterial growth inhibition incubated for 12 hrs by serial dilution analysis. The test is classed as functional.
For test [1], the system named is Staphylococcus aureus. Kind of test: Antibacterial activity against Staphylococcus aureus assessed as reduction in bacterial growth. The test is classed as functional.
Test [2] has as its system Bacillus subtilis. Kind of test: Antibacterial activity against Bacillus subtilis assessed as reduction in bacterial growth. The test is classed as functional.
The next test concerns ACHN. Kind of test: Growth inhibition of human ACHN cells assessed as cell viability incubated for 48 hrs by SRB assay. The test is classed as functional. As to conditions: pooled result: one value given for 6 cell lines, strains, targets or settings.
For a further test, the system named is Micrococcus luteus. Kind of test: Antimicrobial activity against Micrococcus luteus assessed as bacterial growth inhibition. The format is functional.
Test [3] concerns Staphylococcus aureus. Nature of the test: Antibacterial activity against methicillin resistant Staphylococcus aureus assessed as reduction in bacterial growth. The test is classed as functional, organism-based.
In a further test the test system is Candida albicans. Nature of the test: Antifungal activity against Candida albicans assessed as reduction in […] growth. The format is functional.
In test [4] the test system is Mycolicibacterium smegmatis. Kind of test: Antibacterial activity against Mycolicibacterium smegmatis assessed as reduction in bacterial growth. The format is functional.
For the next test, the system named is Bacillus mycoides. Nature of the test: Antibacterial activity against Bacillus mycoides assessed as reduction in bacterial growth. The test is classed as functional.
In a further test the test system is MDA-MB-231. Kind of test: Growth inhibition of human MDA-MB-231 cells assessed inhibition of cell growth. The test is classed as functional.
Another test has as its system MOLT-4. Kind of test: Cytotoxicity against human MOLT-4 cells assessed as inhibition of cell growth incubated for 24 hrs by MTT assay. The format is functional, cell-based. As to conditions: MOLT-4, 24 h. In general terms: Formazan colour is commonly taken as a measure of viable cells.
The subject of the next test is Escherichia coli. Kind of test: Antibacterial activity against Escherichia coli assessed as reduction in bacterial growth. The test is classed as functional.
A further test has as its system HL-60. Kind of test: Cytotoxicity against human HL-60 cells assessed as inhibition of cell growth. The test is classed as functional, cell-based.
A further test deals with A549. Nature of the test: Cytotoxicity against human A549 cells assessed as inhibition of cell growth incubated for 48 hrs by MTT assay. The format is functional, cell-based. As to conditions: A549, 48 h.
The test system of the next test is Prorocentrum minimum. Kind of test: Antimicrobial activity against Prorocentrum minimum assessed as […] growth inhibition. The test is classed as functional.
Test [5] has as its system Bacillus subtilis. Nature of the test: Antibacterial activity against Bacillus subtilis ATCC 6633 assessed as reduction in bacterial growth. The format is functional.
For test [6], the system named is Staphylococcus aureus. Kind of test: Antibacterial activity against Staphylococcus aureus FDA 209P JC-1 assessed as reduction in bacterial growth. The format is functional.
A further test deals with MH60. Kind of test: Cytotoxicity in mouse MH60 cells assessed as inhibition of cell growth. The test is classed as functional, cell-based.
The test system of a further test is RAW264.7. Kind of test: Antiinflammatory activity in mouse RAW264.7 cells assessed as inhibition of LPS-induced NO production pretreated with compound for 1 hr followed by LPS-induction and measured after 48 hrs by microplate reader analysis. The test is classed as functional, cell-based.
The subject of test [7] is Trypanosoma brucei rhodesiense. Kind of test: Antitrypanosomal activity against Trypanosoma brucei rhodesiense IL-1501 assessed as inhibition of cell growth incubated for 69 hrs by AlamarBlue assay. The test is classed as functional, organism-based.
Another test deals with HepG2. Kind of test: Cytotoxicity against human HepG2 cells assessed as inhibition of cell growth. The format is functional, cell-based.
In another test the test system is HCT-8. Nature of the test: Cytotoxicity against human HCT-8 cells assessed as inhibition of cell growth incubated for 48 hrs by MTT assay. The format is functional, cell-based. As to conditions: HCT-8, 48 h.
Another test has as its system HeLa. Nature of the test: Cytotoxicity against human HeLa cells assessed as inhibition of cell growth. The format is functional, cell-based.

The values that follow come from ChEMBL document CHEMBL5385919, “A Survey of Recently Discovered Naturally Occurring Organohalogen Compounds” (J Nat Prod, 2024).

In brackets after ≈: the same amount, converted by molar mass. Numbered stars: 1 amine (or outer) side, 2 acyl side, 3 side chain; on linkers, the order of the positions; unused ones are H or OH. Square brackets hold non-standard residues; d marks the D form. Peptide text beside a SMILES is read from it. X1 = CC(C)(O)/C=C/[C@]12C[C@@H](C(=O)[*:2])N([*:1])[C@@H]1Nc1ccc(Br)cc12

What is called MIC is the lowest concentration found to suppress growth. Consider `O=C(N[C@H](CO)[C@H](O)c1ccc([N+](=O)[O-])cc1)C(Cl)Cl` [CHLORAMPHENICOL], for which, in the test on Vibrio harveyi, the MIC was 2 µg/mL (≈ 6.19 µM).

For orientation: GI50 means the concentration that inhibits growth by half. In the case of `CC(C)Cc1c(O)cc2oc3cc(Cl)cn3c(=O)c2c1O`, the MIC with Staphylococcus aureus [1], with Bacillus subtilis [2] and in the test on Micrococcus luteus was 0.7 µM (≈ 0.215 µg/mL) throughout. The GI50 with ACHN amounted to 4.9 µM.

As to `COc1ccc2[nH]c3c(O)cccc3c2c1Cl`, the MIC is 32 µg/mL with Staphylococcus aureus [3], 32 µg/mL (≈ 129 µM) in the test on Candida albicans, 32 µg/mL (≈ 129 µM) in [4] and 32 µg/mL (≈ 129 µM) in the test with Bacillus mycoides.

Consider `O=C1NC[C@H](c2cc(Br)c(OC[C@H](O)CNC(=O)/C(Cc3cc(Br)c(O)c(Br)c3O)=N\O)c(Br)c2)O1`, for which, in the test with Staphylococcus aureus [1], the MIC stood at 5.2 µM (≈ 3.96 µg/mL).

Take `CCCC[C@H]1CCC[C@@H](Cl)C[C@@H](OC)c2cc(O)c(c(O)c2)[C@@H](CC)CCC[C@@H](Cl)C[C@@H](OC)c2cc(O)c1c(O)c2`: the 50% growth inhibitory concentration (GI50) in the test with MDA-MB-231 is 0.72 µM.

`CCCCC[C@H]1CCC[C@@H](Cl)C[C@@H](OC)c2cc(O)c(c(O[C@@H]3OC[C@@H](O)[C@H](O)[C@H]3O)c2)[C@@H](CCCC)CCC[C@@H](Cl)C[C@@H](OC)c2cc(O)c1c(O)c2` came in with a concentration for 50% growth inhibition (GI50) in the test on MDA-MB-231 of 0.72 µM.

The term IC50 denotes the concentration that gives 50% inhibition. Turning to `CC(C)C[C@@H]1NC(=O)[C@@H]2C[C@]3(/C=C/C(C)(C)O)c4cc(Br)ccc4N[C@H]3N2C(=O)[C@@H]2CCCN2C(=O)[C@H](C(C)C)NC(=O)[C@@H]2CCCN2C(=O)[C@H](CC(C)C)NC(=O)[C@@H]2CCCN2C(=O)[C@H](CC(C)C)NC(=O)[C@@H]2CCCN2C(=O)[C@H](Cc2ccccc2)NC1=O` (cyclo(FPLPLPVP[X1]L)), the IC50 in the test with MOLT-4 came to 4.7 µM.

Regarding `COc1c(Br)cc(C/C(=N/O)C(=O)NC[C@@H](O)COc2c(Br)cc([C@H]3CNC(=O)O3)cc2Br)c(O)c1Br`, in the test with Staphylococcus aureus [1], the minimum inhibitory concentration (MIC) came to 5.2 µM (≈ 4.03 µg/mL).

With `O=C(O)c1cn(C2CC2)c2cc(N3CCNCC3)c(F)cc2c1=O` [CIPROFLOXACIN], the MIC with Escherichia coli was found to be 0.025 µM (≈ 0.00828 µg/mL).

Take `O=C1NC(=O)c2c1c1c3cc(Cl)ccc3[nH]c1c1[nH]c3ccc(Cl)cc3c21`: the MIC with Candida albicans amounted to 1 µg/mL (≈ 2.54 µM).

As to `CC(C)/C1=C/[C@H](O)[C@](C)(O)CC[C@H](Cl)[C@@]2(C)CC[C@H](O2)[C@](C)(O)CC1`, in the test on HL-60, the IC50 was found to be 3.67 µM.

Take `CC(C)=C1C[C@@]2(COC(=O)Cc3cc(O)c(O)c(Cl)c3)C(=CC1=O)CC[C@@H](O)[C@@H]2C`: the IC50 in the test with A549 was determined as 3.2 µM.

`CCCC[C@H]1CCC[C@@H](Cl)CCc2cc(O)c(c(O)c2)[C@@H](CCCC)CCC[C@@H](Cl)C[C@@H](OC)c2cc(O)c1c(O)c2` yielded a GI50 with MDA-MB-231 of 0.72 µM.

For the compound `COc1cc(OC)c2c(O)c3c(=O)cc(C)oc3c(-c3c(OC)cc4c(I)c(O)c5c(=O)cc(C)oc5c4c3OC)c2c1`, the MIC with Vibrio harveyi came out at 8 µg/mL (≈ 11.5 µM); with Prorocentrum minimum, 0.61 µg/mL (≈ 0.876 µM).

For the compound `CO[C@H]1C[C@@H](O)[C@H](OC)c2oc3c4c5c(c(O)c3c(=O)c21)-c1c(cc2c(Cl)c(C)[nH]c(=O)c2c1O)C[C@H]5OCO4`, the MIC in the test on Bacillus subtilis [5] came out at 0.098 µg/mL (≈ 0.172 µM); with Staphylococcus aureus [6] it was 0.049 µg/mL (≈ 0.086 µM).

Regarding `CC(C)=CCC1OC1(C)C1(O)C(O)C(=O)CC[C@]1(O)CCl` (stereo partly drawn), the IC50 in the test on MH60 is 7.5 µM.

Regarding `Cc1cc(O)c2c3c(c(O)cc(OC[C@@H](O)C(C)(C)Cl)c13)C(=O)C2=O`, in the test on Staphylococcus aureus [3], the MIC is 12.5 µM.

In the case of `C#C/C=C\CC(Br)[C@@H]1C[C@@H](OC(C)=O)[C@H](CCCCCC)O1` (stereo partly drawn), the IC50 with RAW264.7 is 3.69 µM.

On to `Oc1cc(Br)cc(Br)c1Oc1cc(Br)c(Br)c(Br)c1Oc1ccc(Br)cc1Br`, for which, in test [7], the IC50 worked out at 1.2 µM.

Turning to `C=C1C[C@H](O)[C@H](Br)C(C)(C)[C@]12CC=C(COC)CC2`, the IC50 in the test with HepG2 was 4.08 µM.

In the case of `C=C(COC(=O)Cc1cc(O)c(O)c(Cl)c1)[C@@]12O[C@@H]1[C@@]1(C)C(=CC2=O)CC[C@@H](O)[C@@H]1C`, the IC50 with HCT-8 turned out to be 5.4 µM.

`CCCC[C@@H](Cl)CCC[C@@H](Cl)C[C@@H](OC)c1cc(O)c([C@@H](CCCC)CCC[C@@H](Cl)C[C@@H](OC)c2cc(O)cc(O)c2)c(O)c1` yielded a GI50 with MDA-MB-231 of 0.72 µM.

On to `CO[C@H]1C[C@@H](O)[C@H](OC)c2oc3c4c5c(c(O)c3c(=O)c21)-c1c(cc2c(Cl)c(C)n(N)c(=O)c2c1O)C[C@H]5OCO4`, for which the MIC in the test on Bacillus subtilis [5] and in the test on Staphylococcus aureus [6] was 0.001 µg/mL (≈ 0.00171 µM) in each case. Besides, the IC50 in the test on HeLa amounted to 0.04 nM.
